Literature values as cited in US10172912B2, “Chemical induction of lactation in prepubescent non-human mammals” (priority 2009, dated 2019).

How the values were obtained:
[1] = system: gravid horses; conditions: for udder development: gravid equine mares with endophyte-infected ryegrass toxicity, thirty days before foaling
[2] = system: plasma proteins
[3] = system: non-pregnant mares; conditions: altrenogest/estradiol pessary week 1, estradiol pessary week 2 with twice daily drug

Row | bound to plasma proteins [2] | Structure (SMILES) | udder development [1] | lactation ([1]; gravid horses with endophyte-infected ryegrass toxicity, administration for at least eighteen days) | induced lactation volume [3]
1 | 91-93% | O=c1[nH]c2ccccc2n1CCCN1CCC(n2c(=O)[nH]c3cc(Cl)ccc32)CC1 [Domperidone] | increases udder development | increase lactation | 
2 |  | CCN1CCCC1CNC(=O)c1cc(S(N)(=O)=O)ccc1OC (centres unmarked) [sulpiride] | increases udder development |  | ~1 liter per mare/day
